Test results taken from patent US20220127297A1, “Novel Antibacterial 3"-Derivatives Of 4,6-Disubstituted 2,5-Dideoxystreptamine Aminoglycoside Antibiotics” (AGILeBiotics B.V., priority 2018, published 2022).
In brackets after ≈: the same amount, converted by molar mass. Like-named read-outs stand apart in the source and are kept apart here.

What was measured:
E. coli ATCC25922 strain = assay: MIC 50, broth micro-dilution, wild-type Escherichia coli; format: cell-based; conditions: MH2, 18 h
Excerpt: 3.1 Against E. coli Strains
(§1) Tested reference compounds. Amikacin sulfate (Cat. No. 01693, Chem-Impex), Gentamicin sulfate (Cat. No. G4918, Sigma Aldrich).
Microbial strains. E. coli ATCC 25922, E. coli ATCC 25922/pET-9b(+), E. coli ATCC 25922/pAT21-1, E. coli ATCC 25922/pBluescript::AAC(6′)-Ie/APH(2″)-Ia, E. coli ATCC 25922/pBlue_lpp_aacC3_rrnC, E. coli ATCC 25922/pSET152.
Culture media and equipment. BBL™ Mueller Hinton Broth 2 (Lot. BCBW1143, Cat. No. 70192, Sigma); Kanamycin A (Cat. No. A1493, AppliChem); 96-well deep well plate, 1 mL (Cat. No. 0030506.200, Eppendorf); Plate lids (Cat. No. 0030131.525, Eppendorf); 96-well plate, F-bottom (Cat. No. 781602, Brand; Incubator, Infors Multitron Pro); Laminar flow (Heraeus KS12); UV/VIS meter (Eppendorf BioPhotometer Plus); Platereader (Tecan Sunrise).
(§2) Compound preparation. Compounds were prepared in MH2 media at a concentration of 5 mM and stored at 4° C. For testing, solutions of 128 μM were prepared in MH2. Out of these working solutions, 400 μL was transferred to wells in the first column of 96-well deep well plates. Each compound was transferred in triplicate. Plates were previously filled with 200 μL of MH2 media in all wells except for the wells in the first column. After compound and antibiotic addition, the compounds were serial two-fold diluted by transferring 200 μL from the first to the second column, then from the second to the third column and so on. Finally, 200 μL was removed from the last column.
Inoculum preparation. Microorganisms used were all revived from 20% glycerol (40% v/v glycerol in water was diluted with MH2) storage at −80° C. by inoculating them in 5 mL MH2. inoculums of E. coli containing a plasmid were selected for by adding 50 μg/mL KanaA. The Inoculums were grown to an optical density (measured by UV/Vis spectroscopy) of 0.6-0.8 at 600 nm. Out of these suspensions, actual inoculums were prepared by diluting them to an optical density (OD) of 0.1 in MH2 media. From these inoculums, 200 μL was transferred to each well, resulting in a final compound concentration range of 64 μM-31.3 nM. All plates were incubated at 900 rpm and 70% rH for 18 h at 37° C.
(§3) MIC determination. After 18 h of growth, 200 μL was transferred to a 96-well F-bottom plate. The optical density was determined by a plate reader at 600 nm, with 10 s shaking before reading. Triplicate measurements were averaged, and a growth curve was plotted in Microsoft Excel. The first column in which the growth reached half the value of maximum growth was determined as the MIC50 value for that particular compound.
(§4) MIC50. The MIC50 of a compound was assigned at which the bacterial growth reached half the value of maximum growth.

A. baumannii DSM 105126 = assay: MIC 50, broth micro-dilution, DSM strains; format: cell-based, Acinetobacter baumannii
Excerpt: (§5) 3.2 Against Selected Bacteria of the ESKAPE Panel and Enterococcus faecalis (DSM Strains)
as §1
(§6) Microbial strains. Enterococcus faecalis DSM 2570, Klebsiella pneumoniae DSM 26371, Acinetobacter baumannii DSM 105126, Enterobacter cloacae 3MRGN (clinical bronchial aspirate isolate).
(§7) Culture media and equipment. BBL™ Mueller Hinton Broth 2 (Lot. BCBW1143, Cat. No. 70192, Sigma); Trypcase Soy Blood-agar plates (Cat. No. 43001, Biomérieux); Cryoinstant (contains 15% glycerol; Cat. No. 822070ZA, VWR International); GasPak™ EZ Standard Incubation Container (Cat. No. 260671, Becton Dickinson); GasPak™ EZ Campy Container System Sachets (Cat. No. 260680, Becton Dickinson); 96-well deep well plate, 1 mL (Cat. No. 0030506.200, Eppendorf); Plate lid (Cat. No. 0030131.525, Eppendorf); 96-well plate, F-bottom (Cat. No. 260860, Nunc); Incubator (Sartorius Certomat BS-1); Laminar flow (Heraeus HS12); UV/VIS meter (Perkin Elmer Lambda Bio+); Platereader (Tecan Infinite M200 Pro).
as §2, with “MH2, for tests against E. faecalis a solution of 512 μM was prepared.” for “MH2.”
(§8) Inoculum preparation. Microorganisms used were all revived from 15% glycerol storage in Croinstant tubes at −28° C. by plating them on blood agar plates. A. baumanni, and E. cloacae were grown aerobically at 37° C., E. faecalis was grown microaerophilically at 37° C., and K. pneumoniae was grown aerobically at 37° C. Plates were stored at 4° C. for up to two weeks, after which new plates were prepared from −28° C. A single colony was inoculated in MH2 media and grown at 37° C. and 200 rpm to an optical density (measured by UV/Vis spectroscopy) of 0.6-0.8 at 600 nm. Out of these suspensions, actual inoculums were prepared by diluting them to an optical density of 0.1 in MH2 media. From these inoculums, 200 μL was transferred to each well, resulting in a final compound concentration range of 64 μM-31.3 nM for, K. pneumoniae, A. baumanni, and E. cloacae, and 256 μM-125 nM for E. faecalis. Plates inoculated with E. faecalis were placed inside a GasPak™ Container System with GasPak™ Campy Container System sachets. All plates were incubated at 200 rpm for 18 h under the microorganism culturing conditions mentioned above.
as §3, with “in” for “in Microsoft”
as §4

[1] = system: Enterobacter cloacae 3MRGN (clinical bronchial aspirate isolate); assay: MIC 50, broth micro-dilution, clinical isolate; format: cell-based; conditions: E. Cloacae clinical isolate
Excerpt: as §5, §1, §6, §7
as §2, with “MH2, for tests against E. faecalis a solution of 512 μM was prepared.” for “MH2.”
as §8
as §3, with “in” for “in Microsoft”
as §4

[2] = Acinetobacter baumannii, DSM105126, read-out: MIC 50

| Compound | MIC50 (E. coli ATCC25922 strain) | MIC50 (A. baumannii DSM 105126) | MIC50 [1] | MIC50 (E. coli ATCC25922 strain; Escherichia coli, ATCC25922, 18 h) | MIC50 (A. baumannii DSM 105126; [2]) | MIC50 ([1]; Enterobacter cloacae, read-out: MIC 50) |
| --- | --- | --- | --- | --- | --- | --- |
| NCC[C@H](O)C(=O)N[C@@H]1C[C@H](N)[C@@H](O[C@H]2O[C@H](CN)[C@@H](O)[C@@H](O)[C@H]2O)[C@H](O)[C@H]1O[C@H]1O[C@H](CO)[C@@H](O)[C@H](N)[C@H]1O [ABX3002, 3′Epi-KanaA-AHB] | 16 to 32 µM | 2 µM (≈ 1.17 µg/mL) | 16 µM (≈ 9.37 µg/mL) |  |  |  |
| N=C(N)NC1[C@@H](O)C(OC2[C@@H](F)[C@H](O[C@H]3OC(CN)[C@@H](O)[C@H](O)C3O)C(N)C[C@H]2NC(=O)[C@@H](O)CCN)O[C@H](CO)[C@H]1O (stereo partly drawn) [ABX3003, 3′epi-KanaA-AHB-F-Gua] |  |  |  | 2 µM (≈ 1.26 µg/mL) | 0.0625 to 0.125 µM (≈ 0.0394 to 0.0787 µg/mL) | 1 to 2 µM (≈ 0.63 to 1.26 µg/mL) |
| NCCC(O)C(=O)NC1CC(N)C(OC2OC(CN)C(O)C(O)C2O)C(F)C1OC1OC(CO)C(O)C(N)C1O (stereo not drawn) [ABX3005, 3′Epi-KanaA-AHB-F] | 4 µM (≈ 2.35 µg/mL) | 1 µM (≈ 0.588 µg/mL) | 4 µM (≈ 2.35 µg/mL) |  |  |  |
| NCCC(O)C(=O)NC1CC(N)C(OC2OC(CN)C(O)C(O)C2N)C(O)C1OC1OC(CO)C(O)C(N)C1O (centres unmarked) [ABX4001, KanaB-AHB] | 2 µM (≈ 1.17 µg/mL) | 0.5 µM (≈ 0.292 µg/mL) | 2 µM (≈ 1.17 µg/mL) |  |  |  |
| NCC[C@H](O)C(=O)N[C@@H]1CC(N)[C@@H](O[C@H]2OC(CN)[C@@H](O)[C@@H](O)C2N)[C@H](O)C1OC1O[C@H](CO)[C@@H](O)C(N)[C@H]1O (stereo partly drawn) [ABX4002, 3′Epi-KanaB-AHB] | 8 µM (≈ 4.68 µg/mL) | 0.5 µM (≈ 0.292 µg/mL) | 4 µM (≈ 2.34 µg/mL) |  |  |  |
| NCC[C@H](O)C(=O)N[C@@H]1CC(N)[C@@H](O[C@H]2OC(CN)[C@@H](O)[C@@H](O)C2N)[C@H](F)C1OC1O[C@H](CO)[C@@H](O)C(N)[C@H]1O (stereo partly drawn) [ABX4003, 3′Epi-KanaB-AHB-F] | 4 to 8 µM | 0.5 µM (≈ 0.293 µg/mL) | 4 µM (≈ 2.35 µg/mL) |  |  |  |
| N=C(N)NC1[C@@H](O)C(OC2[C@@H](F)[C@H](O[C@H]3OC(CN)[C@@H](O)[C@H](O)C3N)C(N)C[C@H]2NC(=O)[C@@H](O)CCN)O[C@H](CO)[C@H]1O (stereo partly drawn) [ABX4004, 3′epi-KanaB-AHB-F-Gua] | 1 to 2 µM | 0.125 µM (≈ 0.0786 µg/mL) | 1 µM (≈ 0.629 µg/mL) |  |  |  |
| N=C(N)N[C@@H]1[C@@H](O)[C@@H](O[C@@H]2[C@@H](O)[C@H](O[C@H]3O[C@H](CN)[C@@H](O)[C@@H](O)[C@H]3N)[C@@H](N)C[C@H]2NC(=O)[C@@H](O)CCN)O[C@H](CO)[C@H]1O [ABX4005, 3′Epi-KanaB-AHB-Gua] | 4 µM (≈ 2.51 µg/mL) | 0.5 µM (≈ 0.313 µg/mL) | 4 to 8 µM |  |  |  |
| N=C(N)NC1[C@@H](O)C(OC2[C@@H](F)[C@H](O[C@H]3OC(CN)[C@@H](O)[C@H](O)C3N)C(N)C[C@H]2NC(=O)[C@@H](O)CCN)O[C@H](CO)[C@H]1O (some centres unmarked) [ABX4006, KanaB-AHB-F-Gua] |  |  | 0.25 to 0.5 µM |  | 0.125 µM (≈ 0.0786 µg/mL) |  |
